What all share (type): biochemical
In one assay the target is JNK3 (Homo sapiens, UniProt P53779). The assay is described as follows: JNK3 SPA assay. The following applies: phosphorylation of GST-c-Jun, 3.33 μM ATP. As to the method: (§1) JNK1, JNK2, JNK3—SPA Assay
(§2) • 1. Compound is dissolved in DMSO to a convenient concentration and this is diluted in 10% DMSO to a five times concentrate of the desired starting concentration (frequently 1: 100). • 2. 10 μl of 500 mM EDTA is added to alternative wells of the Opti-plate row, which will receive kinase reaction plus DMSO. This creates the negative control. • 3. For the JNK2 and JNK3 assay, compounds are prepared in six 2-fold dilutions with water and each concentration is tested in duplicate. For the JNK1 assay compounds are prepared in four 5-fold dilutions with water which are tested in triplicate. Controls are treated identically. • 4. 20 μl per well of each compound concentration is transferred to an Opti-plate, in duplicate. • 5. 30 μl (JNK2/3 SPA) or 50 μl (JNK1 SPA) of substrate solution (25 mM HEPES pH 7.5, 10 mM magnesium acetate with 3.33 μM ATP (JNK2/3) or 2 μM ATP (JNK1), approximately 7.5 kBq [γ-^33P] ATP, GST-c-Jun, in water) is added to each well. • 6. 50 μl (JNK2/3 SPA) or 30 gl (JNK1 SPA) of kinase solution (JNK in 25 mM HEPES pH 7.5, 10 mM Mg Acetate) is added to each well.
(§3) • 7. The plate is incubated for 30 minutes at room temperature. • 8. 100 μl of bead/stop solution is added to each well (5 mg/ml glutathione-PVT-SPA beads, 40 mM ATP in PBS). • 9. Plates are sealed and incubated for 30 minutes at room temperature, centrifuged for 10 minutes at 2500 g and counted. • 10. The IC50 values are calculated as the concentration of the compound being tested at which the phosphorylation of c-Jun is decreased to 50% of the control value.

A further assay has as its target JNK2 (Homo sapiens, UniProt P45984). The assay is described as follows: JNK2 SPA assay. As to conditions: phosphorylation of GST-c-Jun, 3.33 μM ATP. How it is done:
as §1, §2, §3

In the next assay the target is JNK1 (Homo sapiens, UniProt P45983). The assay is described as follows: JNK1 SPA assay. As to conditions: phosphorylation of GST-c-Jun, 2 μM ATP. How it is done:
as §1, §2, §3

The target of the next assay is T1, p38 MAP kinase (Homo sapiens, UniProt Q16539).
T1 construct: purchased Upstate
T1 sequence (Q16539 whole entry): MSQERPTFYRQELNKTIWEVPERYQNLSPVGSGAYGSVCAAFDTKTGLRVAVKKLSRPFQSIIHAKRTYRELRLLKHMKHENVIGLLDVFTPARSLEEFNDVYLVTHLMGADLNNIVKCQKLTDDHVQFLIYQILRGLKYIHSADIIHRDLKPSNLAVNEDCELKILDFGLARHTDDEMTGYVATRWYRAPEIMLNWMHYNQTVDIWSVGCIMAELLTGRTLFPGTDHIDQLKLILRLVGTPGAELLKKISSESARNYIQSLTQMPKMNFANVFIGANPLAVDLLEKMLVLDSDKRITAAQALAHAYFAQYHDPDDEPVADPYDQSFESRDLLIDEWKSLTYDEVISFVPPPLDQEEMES
Briefly: p38 ELISA. The following applies: phosphorylation of GST-ATF2, 50 μM ATP. As to the method:
Active p38 kinase (100 ng; Upstate) was added to 2 μg GST-ATF2 substrate (NEB) in 250 mM Hepes pH 7.5/100 mM MgAc/50 μM ATP (final) in the presence or absence of compounds in 50 μl. The mixture was incubated at 30° C. for 1 hour, and then diluted with 200 μl PBS-Tween (0.05%). From this, duplicate volumes of 100 μl were added to a Reacti-Bind glutathione coated plate (Pierce) and incubated for 1 hour. After washing 3 times with PBS-Tween (0.05%), rabbit anti-phospho-ATF2 (Thr71) antibody (NEB) was added at 1:500, and incubated for another hour at room temperature. After 3 additional washes with PBS-Tween (0.05%), 100 μl of anti-rabbit IgG alkaline phosphatase-conjugated secondary antibody (Sigma) was added at 1:1000, the reaction was incubated for a further hour, washed 3 times, and then phosphatase substrate (Sigma) was added (100 μl per well; 3 tablets in 5 ml water). After incubation in the dark at 37° C. for 1 hour, the reaction mixture was transferred to a clear 96 well plate, and the absorbance at 405 nm was read. The IC50 values are calculated as the concentration of the compound being tested at which the phosphorylation of ATF2 is decreased to 50% of the control value.

In patent US7314940B2, “Jun kinase inhibitors” (Eisai Co., Ltd., priority 2001, dated 2008) one finds IC50 data, which are given here for 21 compounds.

JNK3, sequence (P53779 whole entry): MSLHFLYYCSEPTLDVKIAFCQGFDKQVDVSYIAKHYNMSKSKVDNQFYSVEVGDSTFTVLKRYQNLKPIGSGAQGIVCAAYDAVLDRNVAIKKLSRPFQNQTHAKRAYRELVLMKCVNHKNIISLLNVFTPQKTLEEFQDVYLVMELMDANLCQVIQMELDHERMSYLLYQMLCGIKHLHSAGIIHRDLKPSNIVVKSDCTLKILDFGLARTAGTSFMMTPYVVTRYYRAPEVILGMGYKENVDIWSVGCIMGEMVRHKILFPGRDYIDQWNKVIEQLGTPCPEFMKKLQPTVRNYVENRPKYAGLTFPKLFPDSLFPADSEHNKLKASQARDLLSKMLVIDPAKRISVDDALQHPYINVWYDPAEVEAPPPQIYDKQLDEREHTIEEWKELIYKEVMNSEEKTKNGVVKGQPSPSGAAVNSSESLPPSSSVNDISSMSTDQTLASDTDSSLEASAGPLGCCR
JNK2, sequence (P45984 whole entry): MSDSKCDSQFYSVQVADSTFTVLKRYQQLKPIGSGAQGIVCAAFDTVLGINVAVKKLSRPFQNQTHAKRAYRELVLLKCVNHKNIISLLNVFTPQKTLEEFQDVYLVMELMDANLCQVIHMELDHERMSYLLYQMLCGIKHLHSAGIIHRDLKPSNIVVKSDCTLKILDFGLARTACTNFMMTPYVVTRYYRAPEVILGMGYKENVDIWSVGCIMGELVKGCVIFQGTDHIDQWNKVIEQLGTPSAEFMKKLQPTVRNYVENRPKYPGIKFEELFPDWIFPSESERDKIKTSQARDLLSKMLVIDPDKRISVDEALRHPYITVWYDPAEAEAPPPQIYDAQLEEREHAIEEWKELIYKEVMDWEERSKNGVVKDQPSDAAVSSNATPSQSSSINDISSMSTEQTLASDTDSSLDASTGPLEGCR
JNK1, sequence (P45983 whole entry): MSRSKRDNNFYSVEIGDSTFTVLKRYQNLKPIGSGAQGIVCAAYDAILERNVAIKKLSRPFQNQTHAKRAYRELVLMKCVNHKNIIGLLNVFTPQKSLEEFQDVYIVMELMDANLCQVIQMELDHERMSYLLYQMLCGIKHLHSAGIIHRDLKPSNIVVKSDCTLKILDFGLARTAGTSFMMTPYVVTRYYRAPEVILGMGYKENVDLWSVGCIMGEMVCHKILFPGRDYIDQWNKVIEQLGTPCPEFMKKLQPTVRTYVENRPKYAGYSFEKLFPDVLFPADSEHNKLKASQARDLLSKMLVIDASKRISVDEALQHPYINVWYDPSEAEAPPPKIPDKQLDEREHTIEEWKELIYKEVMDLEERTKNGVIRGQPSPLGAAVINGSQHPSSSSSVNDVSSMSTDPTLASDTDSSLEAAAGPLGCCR

With `CCCNc1nccc(-c2c(-c3ccc(F)cc3)nc3n2[C@H](COc2ccc4ccccc4n2)CC3)n1`, the concentration for half-maximal inhibition (IC50) was 88 nM on JNK3, 52 nM against JNK2, 183 nM on JNK1 and 270 nM at p38 MAP kinase.

As for `CCCNc1nccc(-c2c(-c3ccc(F)cc3)nc3n2[C@@H](COc2ccc4ccccc4n2)CC3)n1`, the concentration for half-maximal inhibition (IC50) on JNK3 amounted to 295 nM.

On to `CCCNc1nccc(-c2c(-c3ccc(F)cc3)nc3n2[C@H](Cn2ccc4ccccc42)CC3)n1`, for which the 50% inhibitory concentration (IC50) came out at 91 nM against JNK3, 250 nM against JNK2, 636 nM on JNK1 and 619 nM on p38 MAP kinase.

In the case of `CCCNc1nccc(-c2c(-c3ccc(F)cc3)nc3n2[C@@H](Cn2ccc4ccccc42)CC3)n1`, the IC50 against JNK3 was 150 nM.

On to `CCNc1nccc(-c2c(-c3ccc(F)cc3)nc3n2[C@H](Cn2ccc4cccc(F)c42)CC3)n1`, for which the 50% inhibitory concentration (IC50) was 61 nM against JNK3, 125 nM against JNK2, 125 nM at JNK1 and 696 nM on p38 MAP kinase.

In the case of `CCNc1nccc(-c2c(-c3ccc(F)cc3)nc3n2[C@H](COc2ncccn2)CC3)n1`, the IC50 against JNK3 was found to be 29 nM; at JNK2, 125 nM; on JNK1, 313 nM; against p38 MAP kinase, 185 nM.

In the case of `O=C(NC[C@@H]1CCc2nc(-c3ccc(F)cc3)c(-c3ccnc(NC4CCC4)n3)n21)c1ccccc1`, the IC50 worked out at 54 nM at JNK3, 83 nM at JNK2 and 412 nM at JNK1.

Take `Fc1ccc(-c2nc3n(c2-c2ccnc(NC4CCC4)n2)[C@H](COc2ccnc4ccccc24)CC3)cc1`: the concentration for half-maximal inhibition (IC50) is 71 nM at JNK3, 114 nM on JNK2 and 249 nM on JNK1.

As for `CCNc1nccc(-c2c(-c3ccc(F)cc3)nc3n2[C@H](COc2ccc4cccc([N+](=O)[O-])c4n2)CC3)n1`, the IC50 at JNK3 was 86 nM; on JNK2, 38 nM; at JNK1 it was 137 nM.

On to `Cc1cc(OC[C@@H]2CCc3nc(-c4ccc(F)cc4)c(-c4ccnc(NC5CCC5)n4)n32)c2ccccc2n1`, for which the IC50 turned out to be 25 nM against JNK3, 30 nM at JNK2 and 78 nM against JNK1.

As to `Fc1ccc(-c2nc3n(c2-c2ccnc(NC4CCC4)n2)[C@H](CNc2ccccn2)CC3)cc1`, the IC50 on JNK3 was 38 nM; at JNK2, 126 nM; on JNK1 it was 524 nM.

In the case of `CCNc1nccc(-c2c(-c3ccc(F)cc3)nc3n2[C@H](Cn2cccc2)CC3)n1`, the IC50 on JNK3 was found to be 14 nM; on JNK2 it was 13 nM; against JNK1, 27 nM; against p38 MAP kinase, 59 nM.

In the case of `Fc1ccc(-c2nc3n(c2-c2ccnc(NC4CCC4)n2)[C@H](/C=C/c2cccs2)CC3)cc1`, the IC50 against JNK3 worked out at 53 nM; against JNK1 it was 248 nM.

For the compound `Fc1ccc(-c2nc3n(c2-c2ccnc(NC4CCC4)n2)[C@H](Cn2ccnc2)CC3)cc1`, the half-maximal inhibitory concentration (IC50) was found to be 7 nM against JNK3 and 22 nM against JNK1.

As to `Fc1ccc(SC[C@@H]2CCc3nc(-c4ccc(F)cc4)c(-c4ccnc(NC5CCC5)n4)n32)cc1`, the half-maximal inhibitory concentration (IC50) was found to be 8 nM on JNK3 and 92 nM on JNK1.

With `COc1ccc(CSC[C@@H]2CCc3nc(-c4ccc(F)cc4)c(-c4ccnc(NC5CCC5)n4)n32)cc1`, the IC50 was 30 nM on JNK3, 94 nM against JNK1 and 148 nM against p38 MAP kinase.

`Fc1ccc(-c2nc3n(c2-c2ccnc(NC4CCC4)n2)[C@H](CC2CCCC2)CC3)cc1` returned a half-inhibitory concentration (IC50) against JNK3 of 10 nM.

As for `CCNc1nccc(-c2c(-c3ccc(F)cc3)nc3n2[C@H](CN2C(=O)CCC2=O)CC3)n1`, the IC50 on JNK3 came out at 17 nM.

Turning to `O=C1CCC(=O)N1C[C@@H]1CCc2nc(-c3ccc(F)cc3)c(-c3ccnc(NC4CCC4)n3)n21`, the values for the half-inhibitory concentration (IC50) against JNK3 and on JNK1 were 6 nM and 60 nM, respectively.

Take `COc1ccc(COC[C@@H]2CCc3nc(-c4ccc(F)cc4)c(-c4ccnc(NC5CCC5)c4)n32)cc1`: the 50% inhibitory concentration (IC50) against JNK3 was 23 nM.

`COc1ccc(COC[C@H]2CCc3nc(-c4ccc(F)cc4)c(-c4ccnc(NC5CCC5)c4)n32)cc1`: it took 301 nM to reach half-maximal inhibition against JNK3 (IC50).
